Data taken from patent publication US4690919A, “Benzoxazinorifamycin derivative, process for preparing the same and antibacterial agent containing the same” (Kanegafuchi Kagaku Kogyo Kabushiki Kaisha, priority 1985, dated 1987).
Values after ≈ are worked out from the molar mass of the structure shown. Read-outs that look alike come from different tables or passages of the source.

What was measured:
[1] = system: Bacillus subtilis IFO 3134; experiment: Antibacterial activity (MIC), standard method of Japan Society of Chemotherapy; type: cell-based
Description: (§1) The results obtained from the typical compounds are shown in Table 2 as the minimum inhibitory concentration (MIC, μg/ml). […] In Table 2, Test compound No. corresponds to derivative No. in Table 1.

[2] = system: Escherichia coli IFO 12734; experiment: as above; type: cell-based; conditions: IFO12734, read-out: minimum inhibitory concentration (MIC)
Description: as §1

[3] = system: Klebsiella pneumoniae IFO 3512; experiment: as above; type: cell-based
Description: as §1

[4] = system: Micrococcus luteus IFO 12708; experiment: as above; type: cell-based
Description: as §1

[5] = system: Mycobacterium smegmatis ATCC 607; experiment: as above; type: cell-based; conditions: Mycolicibacterium smegmatis
Description: as §1

[6] = system: Staphylococcus aureus IFO 12732; experiment: as above; type: cell-based
Description: as §1

[7] = Concentration in serum after oral administration to rats; conditions: rat, 20 mg/kg
[8] = IFO3134, Bacillus subtilis IFO 3134, read-out: minimum inhibitory concentration (MIC)
[9] = IFO3512, Klebsiella pneumoniae IFO 3512, read-out: minimum inhibitory concentration (MIC)
[10] = IFO12708, Micrococcus luteus IFO 12708, read-out: minimum inhibitory concentration (MIC)
[11] = ATCC607, Mycobacterium smegmatis ATCC 607, read-out: minimum inhibitory concentration (MIC)
[12] = IFO12732, Staphylococcus aureus IFO 12732, read-out: minimum inhibitory concentration (MIC)

SMILES | MIC [1, 8] | MIC [2] | MIC [3, 9] | MIC [4, 10] | MIC [5, 11] | MIC [6, 12] | concentration at 1 h [7] | concentration at 3 h [7] | concentration at 5 h [7] | MIC ([1]; Bacillus subtilis, IFO3134, read-out: minimum inhibitory concentration (MIC)) | MIC ([3]; Klebsiella pneumoniae, IFO3512, read-out: minimum inhibitory concentration (MIC)) | MIC ([4]; Micrococcus luteus, IFO12708, read-out: minimum inhibitory concentration (MIC)) | MIC ([5]; ATCC607, read-out: minimum inhibitory concentration (MIC)) | MIC ([6]; Staphylococcus aureus, IFO12732, read-out: minimum inhibitory concentration (MIC))
COC1C=COC2(C)Oc3c(C)c(O)c4c(=O)c(c5oc6cc(N7CCCC(C)C7)ccc6nc-5c4c3C2=O)NC(=O)C(C)=CC=CC(C)C(O)C(C)C(O)C(C)C(OC(C)=O)C1C (stereo not drawn) [compound 23] | ≤ 0.02 µg/mL | > 10 µg/mL | > 10 µg/mL | ≤ 0.02 µg/mL | 1.25 µg/mL (≈ 1.42 µM) | ≤ 0.02 µg/mL | 2100 ng/mL | 6100 ng/mL | 5200 ng/mL | – | – | – | – | –
CCN(C)c1ccc2nc3c4c5c6c(C)c(O)c4c(=O)c(c-3oc2c1)NC(=O)C(C)=CC=CC(C)C(O)C(C)C(O)C(C)C(OC(C)=O)C(C)C(OC)C=COC(C)(O6)C5=O (stereo not drawn) [compound 2] | 0.04 µg/mL (≈ 0.0475 µM) | 1.25 µg/mL (≈ 1.48 µM) | 2.5 µg/mL (≈ 2.97 µM) | ≤ 0.02 µg/mL | 1.25 µg/mL (≈ 1.48 µM) | ≤ 0.02 µg/mL | 3000 ng/mL | 5400 ng/mL | 3000 ng/mL | – | – | – | – | –
COC1C=COC2(C)Oc3c(C)c(O)c4c(=O)c(c5oc6cc(N7CCCCC7)ccc6nc-5c4c3C2=O)NC(=O)C(C)=CC=CC(C)C(O)C(C)C(O)C(C)C(O)C1C (stereo not drawn) [compound 50] | – | – | – | – | – | – | 700 ng/mL | 2400 ng/mL | 2800 ng/mL | – | – | – | – | –
COC1C=COC2(C)Oc3c(C)c(O)c4c(=O)c(c5oc6cc(N7CC=CCC7)ccc6nc-5c4c3C2=O)NC(=O)C(C)=CC=CC(C)C(O)C(C)C(O)C(C)C(OC(C)=O)C1C (stereo not drawn) [compound 37] | ≤ 0.02 µg/mL | 2.5 µg/mL (≈ 2.89 µM) | > 10 µg/mL | ≤ 0.02 µg/mL | 1.25 µg/mL (≈ 1.44 µM) | 0.08 µg/mL (≈ 0.0924 µM) | – | – | – | – | – | – | – | –
COC1C=COC2(C)Oc3c(C)c(O)c4c(=O)c(c5oc6cc(N7CCCC7)ccc6nc-5c4c3C2=O)NC(=O)C(C)=CC=CC(C)C(O)C(C)C(O)C(C)C(O)C1C (stereo not drawn) [compound 49] | ≤ 0.02 µg/mL | 1.25 µg/mL (≈ 1.54 µM) | 5 µg/mL (≈ 6.16 µM) | ≤ 0.02 µg/mL | 1.25 µg/mL (≈ 1.54 µM) | ≤ 0.02 µg/mL | 2700 ng/mL | 3500 ng/mL | 2800 ng/mL | – | – | – | – | –
CO[C@H]1/C=C/O[C@@]2(C)Oc3c(C)c(O)c4c(O)c(c(/C=N/N5CCN(C)CC5)c(O)c4c3C2=O)NC(=O)/C(C)=C\C=C\[C@H](C)[C@H](O)[C@@H](C)[C@@H](O)[C@@H](C)[C@H](OC(C)=O)[C@@H]1C [Rifampicin, reference compound] | – | 10 µg/mL (≈ 12.2 µM) | – | – | – | – | – | – | – | 0.04 µg/mL (≈ 0.0486 µM) | 5 µg/mL (≈ 6.08 µM) | ≤ 0.02 µg/mL | 10 µg/mL (≈ 12.2 µM) | ≤ 0.02 µg/mL
COC1C=COC2(C)Oc3c(C)c(O)c4c(=O)c(c5oc6cc(N7CCC(C)CC7)ccc6nc-5c4c3C2=O)NC(=O)C(C)=CC=CC(C)C(O)C(C)C(O)C(C)C(OC(C)=O)C1C (stereo not drawn) [compound 24] | ≤ 0.02 µg/mL | > 10 µg/mL | > 10 µg/mL | ≤ 0.02 µg/mL | 1.25 µg/mL (≈ 1.42 µM) | ≤ 0.02 µg/mL | – | – | – | – | – | – | – | –
CCN(CC)C(=O)C1CCCN(c2ccc3nc4c5c6c7c(C)c(O)c5c(=O)c(c-4oc3c2)NC(=O)C(C)=CC=CC(C)C(O)C(C)C(O)C(C)C(OC(C)=O)C(C)C(OC)C=COC(C)(O7)C6=O)C1 (stereo not drawn) [compound 31] | ≤ 0.02 µg/mL | 5 µg/mL (≈ 5.17 µM) | > 10 µg/mL | ≤ 0.02 µg/mL | 1.25 µg/mL (≈ 1.29 µM) | ≤ 0.02 µg/mL | – | – | – | – | – | – | – | –
CCC1CCCCN1c1ccc2nc3c4c5c6c(C)c(O)c4c(=O)c(c-3oc2c1)NC(=O)C(C)=CC=CC(C)C(O)C(C)C(O)C(C)C(OC(C)=O)C(C)C(OC)C=COC(C)(O6)C5=O (stereo not drawn) [compound 25] | – | – | – | – | – | – | 2400 ng/mL | 6600 ng/mL | 3500 ng/mL | – | – | – | – | –
COC1C=COC2(C)Oc3c(C)c(O)c4c(=O)c(c5oc6cc(N7CCSCC7)ccc6nc-5c4c3C2=O)NC(=O)C(C)=CC=CC(C)C(O)C(C)C(O)C(C)C(OC(C)=O)C1C (stereo not drawn) [compound 45] | 0.04 µg/mL (≈ 0.0451 µM) | 2.5 µg/mL (≈ 2.82 µM) | 10 µg/mL (≈ 11.3 µM) | ≤ 0.02 µg/mL | 1.25 µg/mL (≈ 1.41 µM) | ≤ 0.02 µg/mL | – | – | – | – | – | – | – | –
COC1C=COC2(C)Oc3c(C)c(O)c4c(=O)c(c5oc6cc(N7CCCCCC7)ccc6nc-5c4c3C2=O)NC(=O)C(C)=CC=CC(C)C(O)C(C)C(O)C(C)C(OC(C)=O)C1C (stereo not drawn) [compound 20] | 0.04 µg/mL (≈ 0.0454 µM) | 1.25 µg/mL (≈ 1.42 µM) | > 10 µg/mL | ≤ 0.02 µg/mL | 1.25 µg/mL (≈ 1.42 µM) | 0.08 µg/mL (≈ 0.0907 µM) | 3200 ng/mL | 5700 ng/mL | 4900 ng/mL | – | – | – | – | –
COC1C=COC2(C)Oc3c(C)c(O)c4c(=O)c(c5oc6cc(N(C)C7CCCCC7)ccc6nc-5c4c3C2=O)NC(=O)C(C)=CC=CC(C)C(O)C(C)C(O)C(C)C(OC(C)=O)C1C (stereo not drawn) [compound 12] | ≤ 0.02 µg/mL | > 10 µg/mL | > 10 µg/mL | ≤ 0.02 µg/mL | 1.25 µg/mL (≈ 1.4 µM) | ≤ 0.02 µg/mL | – | – | – | – | – | – | – | –
COC1C=COC2(C)Oc3c(C)c(O)c4c(=O)c(c5oc6cc(N7CCCCC7)ccc6nc-5c4c3C2=O)NC(=O)C(C)=CC=CC(C)C(O)C(C)C(O)C(C)C(OC(C)=O)C1C (stereo not drawn) [compound 19] | ≤ 0.02 µg/mL | 2.5 µg/mL (≈ 2.88 µM) | 10 µg/mL (≈ 11.5 µM) | ≤ 0.02 µg/mL | 1.25 µg/mL (≈ 1.44 µM) | ≤ 0.02 µg/mL | 4900 ng/mL | 12400 ng/mL | 16600 ng/mL | – | – | – | – | –
COC1C=COC2(C)Oc3c(C)c(O)c4c(=O)c(c5oc6cc(N7CCC7)ccc6nc-5c4c3C2=O)NC(=O)C(C)=CC=CC(C)C(O)C(C)C(O)C(C)C(OC(C)=O)C1C (stereo not drawn) [compound 17] | ≤ 0.02 µg/mL | 2.5 µg/mL (≈ 2.98 µM) | 2.5 µg/mL (≈ 2.98 µM) | ≤ 0.02 µg/mL | 0.63 µg/mL (≈ 0.75 µM) | ≤ 0.02 µg/mL | 4100 ng/mL | 3700 ng/mL | 2500 ng/mL | – | – | – | – | –
COC1C=COC2(C)Oc3c(C)c(O)c4c(=O)c(c5oc6cc(N7CCCC7)ccc6nc-5c4c3C2=O)NC(=O)C(C)=CC=CC(C)C(O)C(C)C(O)C(C)C(OC(C)=O)C1C (stereo not drawn) [compound 18] | ≤ 0.02 µg/mL | 2.5 µg/mL (≈ 2.93 µM) | 5 µg/mL (≈ 5.86 µM) | ≤ 0.02 µg/mL | 1.25 µg/mL (≈ 1.46 µM) | ≤ 0.02 µg/mL | 2300 ng/mL | 4900 ng/mL | 3400 ng/mL | – | – | – | – | –
CCCN(CCC)c1ccc2nc3c4c5c6c(C)c(O)c4c(=O)c(c-3oc2c1)NC(=O)C(C)=CC=CC(C)C(O)C(C)C(O)C(C)C(OC(C)=O)C(C)C(OC)C=COC(C)(O6)C5=O (stereo not drawn) [compound 4] | 0.08 µg/mL (≈ 0.0905 µM) | > 10 µg/mL | > 10 µg/mL | ≤ 0.02 µg/mL | 1.25 µg/mL (≈ 1.41 µM) | ≤ 0.02 µg/mL | 2000 ng/mL | 8500 ng/mL | 2100 ng/mL | – | – | – | – | –
COC1C=COC2(C)Oc3c(C)c(O)c4c(=O)c(c5oc6cc(N7CCN(C)CC7)ccc6nc-5c4c3C2=O)NC(=O)C(C)=CC=CC(C)C(O)C(C)C(O)C(C)C(OC(C)=O)C1C (stereo not drawn) [compound 39] | 0.04 µg/mL (≈ 0.0453 µM) | 0.63 µg/mL (≈ 0.713 µM) | 1.25 µg/mL (≈ 1.42 µM) | ≤ 0.02 µg/mL | 1.25 µg/mL (≈ 1.42 µM) | 0.04 µg/mL (≈ 0.0453 µM) | – | – | – | – | – | – | – | –
COC1C=COC2(C)Oc3c(C)c(O)c4c(=O)c(c5oc6cc(N7CCCC7)cc(O)c6nc-5c4c3C2=O)NC(=O)C(C)=CC=CC(C)C(O)C(C)C(O)C(C)C(OC(C)=O)C1C (stereo not drawn) [compound 46] | ≤ 0.02 µg/mL | > 10 µg/mL | > 10 µg/mL | ≤ 0.02 µg/mL | 1.25 µg/mL (≈ 1.44 µM) | ≤ 0.02 µg/mL | – | – | – | – | – | – | – | –
